In patent US8815811B2, “Peptides and methods for their preparation and use” (Eli Lilly and Company, priority 2010, dated 2014):
Where no end group is shown, it is not given here. [ ]: non-standard residue; d: D form. 1Nal = N[C@@H](Cc1cccc2ccccc12)C(=O)O; Aib = CC(C)(N)C(=O)O

What was measured:
[1] = tested on: diet-induced obese (DIO) mice; assay: Effects on food intake, body weight and body composition in DIO mice; type: in vivo; conditions: for Fat mass loss (g fat weight change for 14 days) / Overall weight loss (g weight change for 14 days) / Total food intake (g total for 14 days): DIO mice
Experimental: Effects on Food Intake, Body Weight and Body Composition in Diet-Induced Obese (DIO) Mice
Three to four months old male diet-induced obese (DIO) mice are used. Animals are individually housed in a temperature-controlled (24° C.) facility with a 12 hour light/dark cycle (lights on 22:00), and have free access to food and water. After 2 weeks acclimation to the facility, mice are randomized to treatment groups (n=8-10/group) so that each group has similar mean body weight and fat mass. Before the experiment, mice are subcutaneously (sc) injected with vehicle solution and weighed for 7 days to acclimate them to the procedures.
Vehicle or peptide analog (dose range 10-100 nmol/Kg) dissolved in vehicle is administered by sc injection to ad libitum fed DIO mice 30-90 minutes prior to the onset of the dark cycle […] for 2 to 4 weeks. Body weight and the weight of food plus the hopper are measured at the same time. Food consumed in the last 24 hours is calculated by subtracting current weight of food plus the hopper from that of the previous day. Absolute changes in body weight are calculated by subtracting the body weight of the animal prior to the first injection. On days −1 and 14, total fat mass is measured by nuclear magnetic resonance (NMR) using an Echo Medical System (Houston, Tex.) instrument. Fat free mass is calculated by subtracting fat mass from total body weight.

Normal male Wistar rats = assay: Intravenous glucose tolerance test in normal rats; type: in vivo; conditions: IVGTT; for insulin AUC: 0 to 30 min
Experimental: Effects on Blood Glucose Excursion During an Intravenous Glucose Tolerance Test in Normal Rats
Normal male Wistar rats (225-250 g) are used in the study. Animals are randomized into groups based on fed body weight and blood glucose. Animals are injected with vehicle or peptide analog (dose 3-400 μg peptide content/kg) 16 hours prior to the start of the test. Food is removed at the time of injection. Prior to the assay the animals are put under anesthesia, Phenobarbital 65 mg/kg i.p., and two catheters are inserted, one in the jugular vein and the other in the carotid artery. At time 0, animals are given 0.5 g glucose/kg through the venous catheter. Blood is collected from the carotid artery at time 0 (pre glucose), 2, 4, 6, 10, 20 and 30 minutes after glucose challenge. Glucose concentration is measured by glucometer. Insulin is measured by Mesoscale®. Efficacy is measured as the increase in total area under the insulin curve (=integrated plasma insulin values from t+0 to 30 min) as well as the area under the glucose curve which is a measure of the glucose excursion following the intravenous glucose challenge.

DIO mice = assay: Oral glucose tolerance test after 2-week treatment in DIO mice; type: in vivo; conditions: for Glucose AUC, MEAN: OGTT
Experimental: Fifty-six hours after the last injection of compound in the DIO study above the animals were subjected to an oral glucose tolerance test. In short, mice were fasted for 16 hours prior to the start of the glucose tolerance test. At time 0, animals are given 2 g/kg dextrose by oral gavage. Blood is collected by tail bleeding taken 0, 15, 30, 60 and 120 minutes after glucose challenge. Glucose concentration is measured by glucometer.

[2] = tested on: diet-induced obese Long Evans rats; assay: Effects on food intake, body weight, body composition and plasma lipids in DIO Long Evans rats; type: in vivo
Experimental: Four to five months old male diet-induced obese Long Evans rats are used. Animals are individually housed in a temperature-controlled (24° C.) facility with a 12 hour light/dark cycle (lights on 22:00), and have free access to food (diet TD95217) and water. Animals are acclimated to the facility for at least 2 weeks. On day 0, body composition is determined by QNMR and rats are randomized to respective groups (n=6/group) based on body weight, % fat, and % lean mass. Compound is administered by subcutaneous injection on days 1, 4, 8, 11, and 15. […] After CO2 euthanasia, blood samples are taken by cardiac stick for analysis of exposure determination.

hGlucR = target: T1, hGlucR (Homo sapiens, UniProt P47871); assay: Glucagon receptor (hGlucR) binding assay (SPA, I-125 glucagon); conditions: hGlucR 293HEK membranes
T1 construct: expressed in transfected cells; host or cells: 293HEK, Hygromycin-selected, phD expression plasmid
Experimental: The hGlucR cDNA is subcloned into the expression plasmid phD (Trans-activated expression of fully gamma-carboxylated recombinant human protein C, an antithrombotic factor. Grinnell, B. W., et. al., Bio/Technology 5: 1189-1192 (1987)). This plasmid DNA is transfected into 293HEK cells and selected with 200 μg/mL Hygromycin.
Crude plasma membranes are prepared using cells from suspension culture. The cells are lysed on ice in hypotonic buffer containing 25 mM Tris HCl, pH 7.5, 1 mM MgCl2, DNAse1, 20 μ/mL, and Roche Complete™ Inhibitors without EDTA. The cell suspension is homogenized with a glass dounce homogenizer using a Teflon® pestle for 25 strokes. The homogenate is centrifuged at 4° C. at 1800×g for 15 minutes. The supernatant is collected and the pellet is resuspended in hypotonic buffer and rehomogenized. The mixture is centrifuged at 1800×g for 15 minutes. The second supernatant is combined with the first supernatant. […]
The binding buffer contains 25 mM 4-(2-hydroxyethyl)-1-piperazineethanesulfonic acid (HEPES), pH 7.4, 2.5 mM CaCl2, 1 mM MgCl2, 0.1% fatty acid free BSA, 0.003% Tween20, and Roche Complete™ Inhibitors without EDTA. […] Plates are read with a PerkinElmer Life and Analytical Sciences Trilux MicroBeta® scintillation counter after 12 hours of settling time at room temperature.
Results are calculated as a percent of specific I-125-glucagon binding in the presence of compound. […]

T1 sequence (P47871 26-477): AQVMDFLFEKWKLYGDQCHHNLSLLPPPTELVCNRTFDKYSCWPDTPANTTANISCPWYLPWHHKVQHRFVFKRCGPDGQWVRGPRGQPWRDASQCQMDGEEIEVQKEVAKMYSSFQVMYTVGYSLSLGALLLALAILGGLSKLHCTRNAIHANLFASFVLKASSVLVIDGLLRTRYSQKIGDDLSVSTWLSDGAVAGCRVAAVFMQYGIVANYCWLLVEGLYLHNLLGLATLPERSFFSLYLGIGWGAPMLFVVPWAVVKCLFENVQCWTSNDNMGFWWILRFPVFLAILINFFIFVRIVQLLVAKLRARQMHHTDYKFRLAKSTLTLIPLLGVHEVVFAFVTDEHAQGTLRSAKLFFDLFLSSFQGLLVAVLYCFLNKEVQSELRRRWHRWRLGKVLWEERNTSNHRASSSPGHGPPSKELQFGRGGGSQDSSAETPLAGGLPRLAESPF

“Aib^2, Aib^13, Nal^22, Aib^29, Cys^43(PEG20K), Cys^44 (PEG20K)-GIP [Example 5] (Y[Aib]EGTFTSDYSI[Aib]LDKIAQRA[1Nal]VQWLIA[Aib]KGKKQEWKHQITQCC-NH2; not fully specified (residues 43, 44); cysteine pairing not given here) [Nal22 GIP analog PEGylated at Cys 43 and 44 with 20 kDa mPEG iodoacetamide]” was tested, and the “Fat mass loss (g fat weight change for 14 days)” value ([1]; Table 6b, 10 nmol/Kg) was -2.4 ± 0.3 g, the “Overall weight loss (g weight change for 14 days)” value ([1]; Table 6b, 10 nmol/Kg) was -3.2 ± 0.3 g and the “Total food intake (g total for 14 days)” value ([1]; Table 6b, 10 nmol/Kg) was 31.0 ± 1.0 g. For the same substance, the “Fat mass loss (g fat weight change for 14 days)” value ([1]; Table 6b, 30 nmol/Kg) was -3.6 ± 0.4 g, the “Overall weight loss (g weight change for 14 days)” value ([1]; Table 6b, 30 nmol/Kg) was -5.0 ± 0.4 g and the “Total food intake (g total for 14 days)” value ([1]; Table 6b, 30 nmol/Kg) was 26.7 ± 0.7 g. For the same substance, the “glucose AUC” value (Normal male Wistar rats; 50 μg/Kg) was 7202 mg·min/dL, the “insulin AUC” value (Normal male Wistar rats; 50 μg/Kg 16 hours before test) was 133 ng·min/mL and the “glucose AUC” value (Normal male Wistar rats; 200 μg/Kg) was 7351 mg·min/dL. For the same substance, the “insulin AUC” value (Normal male Wistar rats; 200 μg/Kg 16 hours before test) was 124 ng·min/mL, the “Glucose AUC, MEAN” value (DIO mice; Table 7b, 10 nmol/Kg) was 14332 mg·min/dL and the “Glucose AUC, MEAN” value (DIO mice; Table 7b, 30 nmol/Kg) was 12474 mg·min/dL.
For “Aib^2, Aib^13, Aib^29, Cys^43(PEG20K), Cys^44 (PEG20K)-GIP (Y[Aib]EGTFTSDYSI[Aib]LDKIAQRAFVQWLIA[Aib]KGKKQEWKHQITQC(PEG 20 kDa)C(PEG 20 kDa)-NH2) [Example 3, GIP analog PEGylated at Cys 43 and 44 with 20 kDa mPEG maleimide]”, the “free fatty acids (plasma)” value ([2]; 10 nmol/Kg) was 0.94 mEq/L, the “total cholesterol (plasma)” value ([2]; 10 nmol/Kg) was 91 mg/dL and the “triglycerides (plasma)” value ([2]; 10 nmol/Kg) was 262.1 mg/dL. For the same substance, the fat mass reduced ([2]; 10 nmol/Kg over 16 days) was 1.3%, the lean mass increased ([2]; 10 nmol/Kg over 16 days) was 0.6% and the “free fatty acids (plasma)” value ([2]; 30 nmol/Kg) was 1.01 mEq/L. The “total cholesterol (plasma)” value ([2]; 30 nmol/Kg) was 94 mg/dL, the “triglycerides (plasma)” value ([2]; 30 nmol/Kg) was 233.5 mg/dL and the fat mass reduced ([2]; 30 nmol/Kg over 16 days) was 2.3%. For the same substance, the lean mass increased ([2]; 30 nmol/Kg over 16 days) was 1.3%, the “changes in body weight and body composition compared to vehicle-treated DIO rats” value ([2]; over 16 days) was “increasing the percentage of lean mass and decreasing the percentage of fat mass” and the “amount of free fatty acids” value ([2]; versus vehicle) was “increased”. For the same substance, the “amounts of plasma lipids, including triglycerides and total cholesterol” value ([2]; versus vehicle) was “lowered”, the “cumulative food intake and body weight compared to vehicle-treated mice” value ([1]; 14-day DIO mouse studies, summary of Tables 6a and 6b) was “decreased” and the “Fat mass loss (g fat weight change for 14 days)” value ([1]; Table 6a, 30 nmol/Kg) was -4.3 ± 0.3 g. For the same substance, the “Total food intake (g total for 14 days)” value ([1]; Table 6a, 30 nmol/Kg) was 26.5 ± 1.5 g, the “Overall weight loss (g weight change for 14 days)” value ([1]; Table 6a, 30 nmol/Kg sc every 3 days) was -5.5 ± 0.4 g and the “Fat mass loss (g fat weight change for 14 days)” value ([1]; Table 6a, 100 nmol/Kg) was -5.6 ± 0.2 g. The “Total food intake (g total for 14 days)” value ([1]; Table 6a, 100 nmol/Kg) was 23.4 ± 0.7 g, the “Overall weight loss (g weight change for 14 days)” value ([1]; Table 6a, 100 nmol/Kg sc every 3 days) was -7.0 ± 0.3 g and the “insulin AUC and glucose AUC compared to vehicle-treated rats” value (Normal male Wistar rats) was “increased insulin AUC and decreased glucose AUC”. For the same substance, the “glucose AUC” value (Normal male Wistar rats; 50 μg/Kg) was 6780 mg·min/dL, the “insulin AUC” value (Normal male Wistar rats; 50 μg/Kg 16 hours before test) was 137 ng·min/mL and the “glucose AUC” value (Normal male Wistar rats; 200 μg/Kg) was 7020 mg·min/dL. The “insulin AUC” value (Normal male Wistar rats; 200 μg/Kg 16 hours before test) was 183 ng·min/mL, the “glucose excursion following an oral glucose load” value (DIO mice; DIO mice, summary of Tables 7a and 7b) was “significantly reduced” and the “Glucose AUC, MEAN” value (DIO mice; Table 7a, 30 nmol/Kg) was 10293 mg·min/dL. For the same substance, the “Glucose AUC, MEAN” value (DIO mice; Table 7a, 100 nmol/Kg) was 10892 mg·min/dL and the Ki (hGlucR) was over 7.89 µM.
